Source: US20230295564A1, “Galectin-9 Specific Binding Agents for Use in Treating Cancer” (Emory University, priority 2020, published 2023)
Where two headings read alike, the source gives them in different places.

Experiments:
human B-ALL cell lines = assay: Annexin-V/PI cell death of human B-ALL cell lines pre-conditioned with RPMI, SCM or ACM
Protocol: Human B-ALL cell lines (Nalm6, REH,) were cultured for 24 hours in unconditioned medium (RPMI), stromal cell-conditioned medium (SCM), or adipocyte-conditioned medium (ACM) and then treated with anti-GAL-9 antibody (αGAL-9 Ab) or an IgG control antibody (IgG ctrl) for an additional 2 days with or without MTX. The percentage of apoptotic and dead cells on day 3 of culture was determined using Annexin-V/ PI staining followed by flow cytometric analysis.
Thus, additional experiments were performed to determine how adipocyte-conditioned medium (ACM)-exposed B-ALL cells responded to chemotherapy treatment. In obese patients, leukemia cells would be exposed to an adipocyte-rich microenvironment prior to chemotherapy administration. To mimic this scenario in vitro, human B-ALL cell lines were pre-treated for 24 hours with unconditioned medium (RPMI), stromal cell-conditioned medium (SCM), or ACM prior to the addition of methotrexate (MTX) for 2 days.

[1] = system: murine BCR-ABL+ Arf-/- B-ALL (mB-ALL); settings: for survival: once weekly from day 7, MTX 0.75 mg/kg, αGAL-9 Ab 1.5 mg/kg
Protocol: Lean and obese mice were inoculated intravenously with murine Bcr-Abl+ Arf-/- B-ALL cells (mB-ALL). On day 7 post-inoculation, when GFP+ leukemic blasts were detected in the peripheral blood, treatment with DMSO (Vehicle, n=10), 0.75 mg/kg methotrexate (MTX, n=10), 1.5 mg/kg anti-galectin-9 antibody (αGAL-9 Ab, n=10), or (MTX + αGAL-9 Ab) a combined was initiated. Treatments were administered once weekly. Survival was monitored and significance was determined using the log-rank test with “A” representing a statistically significant difference between vehicle and MTX-treated mice, “B” between vehicle and anti-Gal-9 treated groups, and “C” between vehicle and MTX + anti-Gal-9 treated mice.
A murine BCR-ABL+ Arf-/- B-ALL (mB-ALL) model was used to test whether treatment with anti-GAL-9 antibody could be used as a therapy to treat obese mice with B-ALL. […] C57BL/6 mice were maintained on lean and high-fat diets as previously described and then challenged with mB-ALL. Treatment with vehicle, MTX, anti-GAL-9 antibody, or a combination of MTX and anti-GAL-9 antibody was initiated on day 7 after leukemia inoculation, when GFP+ B-ALL cells were detected in the peripheral blood.

mB-ALL cell cultures = assay: ACM-induced chemoresistance in mB-ALL cell cultures; type: cell-based, murine

| Compound | decrease of MTX-induced cell death (human B-ALL cell lines; cultures pre-treated with ACM) | MTX-induced cell death, effect of pre-conditioning (human B-ALL cell lines; pre-conditioning with SCM) | survival ([1]; lean mice) | weight loss ([1]; obese mice) | survival ([1]; obese mice) | chemoresistance induced by ACM (mB-ALL cell cultures) | resistance induced by exposure to ACM (human B-ALL cell lines) |
| --- | --- | --- | --- | --- | --- | --- | --- |
| CN(Cc1cnc2nc(N)nc(N)c2n1)c1ccc(C(=O)N[C@@H](CCC(=O)O)C(=O)O)cc1 [MTX, methotrexate] | 40-70% | not impacted | significantly extended the survival | loss substantial weight | not significantly protected | induced chemoresistance |  |
| COc1cccc2c1C(=O)c1c(O)c3c(c(O)c1C2=O)C[C@@](O)(C(=O)CO)C[C@@H]3O[C@H]1C[C@H](N)[C@H](O)[C@H](C)O1 [doxorubicin] |  |  |  |  |  | induced chemoresistance | induced resistance |
| CC[C@]1(O)C[C@H]2CN(CCc3c([nH]c4ccccc34)[C@@](C(=O)OC)(c3cc4c(cc3OC)N(C=O)[C@H]3[C@@](O)(C(=O)OC)[C@H](OC(C)=O)[C@]5(CC)C=CCN6CC[C@]43[C@@H]65)C2)C1 [vincristine] |  |  |  |  |  |  | induced resistance |
